Assay results published in paper doi:10.1101/2023.12.04.569845, “Identification of 4-(6-((2-methoxyphenyl)amino)pyrazin-2-yl)benzoic acids as CSNK2A inhibitors with antiviral activity and improved selectivity over PIM3” (bioRxiv, 2023).
Like-named read-outs stand apart in the source and are kept apart here. One block for each compound: values may come before it.

Experiments:
Assay in all cases: biochemical
Design in all cases: Thermal shift (DSF, SYPRO Orange) Tm shift of recombinant kinase domains at 10 uM compound
CDKL1 = CDKL1 (Homo sapiens, UniProt Q00532)
DAPK3 = DAPK3 (Homo sapiens, UniProt O43293)
DRAK1 = target: T1, DRAK1 (Homo sapiens, UniProt Q9UEE5)
T1 construct: gene STK17A
T1 sequence (Q9UEE5 1-414): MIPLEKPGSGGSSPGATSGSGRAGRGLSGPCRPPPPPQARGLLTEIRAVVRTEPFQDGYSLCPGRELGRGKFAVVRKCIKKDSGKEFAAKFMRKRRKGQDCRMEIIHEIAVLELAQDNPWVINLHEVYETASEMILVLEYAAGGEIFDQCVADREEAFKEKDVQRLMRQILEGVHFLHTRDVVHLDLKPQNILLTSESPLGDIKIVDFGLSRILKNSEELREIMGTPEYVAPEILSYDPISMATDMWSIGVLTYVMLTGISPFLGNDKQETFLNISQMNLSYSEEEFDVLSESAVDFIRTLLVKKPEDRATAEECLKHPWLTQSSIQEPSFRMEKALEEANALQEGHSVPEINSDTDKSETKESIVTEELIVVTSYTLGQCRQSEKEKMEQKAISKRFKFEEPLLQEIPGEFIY

DYRK1A = DYRK1A (Homo sapiens, UniProt Q13627)
EPHA4 = EPHA4 (Homo sapiens, UniProt P54764)
FLT1 = FLT1 (Homo sapiens, UniProt P17948)
MYT1 = target: T2, MYT1 (Homo sapiens, UniProt Q99640)
T2 construct: gene PKMYT1
T2 sequence (Q99640 1-499): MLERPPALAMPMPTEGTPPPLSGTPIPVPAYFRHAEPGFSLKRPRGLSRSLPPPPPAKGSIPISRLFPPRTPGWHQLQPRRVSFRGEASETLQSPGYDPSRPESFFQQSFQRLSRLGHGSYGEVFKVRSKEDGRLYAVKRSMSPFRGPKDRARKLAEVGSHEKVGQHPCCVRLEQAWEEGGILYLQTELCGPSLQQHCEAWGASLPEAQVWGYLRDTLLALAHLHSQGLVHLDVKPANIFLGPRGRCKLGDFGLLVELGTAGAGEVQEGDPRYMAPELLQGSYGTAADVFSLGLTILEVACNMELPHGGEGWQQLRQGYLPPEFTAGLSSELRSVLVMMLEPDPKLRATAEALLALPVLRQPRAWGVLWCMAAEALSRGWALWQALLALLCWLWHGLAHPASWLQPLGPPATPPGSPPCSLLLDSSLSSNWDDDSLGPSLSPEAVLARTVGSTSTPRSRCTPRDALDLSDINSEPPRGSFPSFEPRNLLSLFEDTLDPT

NDR2 = target: T3, NDR2 (Homo sapiens, UniProt Q9Y2H1)
T3 construct: gene STK38L

NQO2 = target: T4, NQO2 (Homo sapiens, UniProt P16083)
T4 sequence (P16083 1-231): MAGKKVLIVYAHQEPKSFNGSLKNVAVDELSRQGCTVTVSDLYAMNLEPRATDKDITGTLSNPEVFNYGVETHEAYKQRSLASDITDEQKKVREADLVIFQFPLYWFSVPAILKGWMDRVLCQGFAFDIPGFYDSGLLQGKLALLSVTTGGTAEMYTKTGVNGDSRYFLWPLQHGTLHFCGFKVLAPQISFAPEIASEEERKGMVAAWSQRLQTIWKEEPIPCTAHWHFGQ

PCTAIRE1 = target: T5, PCTAIRE1 (Homo sapiens, UniProt Q00536)
T5 construct: gene CDK16

PHKg2 = target: T6, PHKg2 (Homo sapiens, UniProt P15735)
T6 construct: kinase domain
T6 sequence (P15735 1-406): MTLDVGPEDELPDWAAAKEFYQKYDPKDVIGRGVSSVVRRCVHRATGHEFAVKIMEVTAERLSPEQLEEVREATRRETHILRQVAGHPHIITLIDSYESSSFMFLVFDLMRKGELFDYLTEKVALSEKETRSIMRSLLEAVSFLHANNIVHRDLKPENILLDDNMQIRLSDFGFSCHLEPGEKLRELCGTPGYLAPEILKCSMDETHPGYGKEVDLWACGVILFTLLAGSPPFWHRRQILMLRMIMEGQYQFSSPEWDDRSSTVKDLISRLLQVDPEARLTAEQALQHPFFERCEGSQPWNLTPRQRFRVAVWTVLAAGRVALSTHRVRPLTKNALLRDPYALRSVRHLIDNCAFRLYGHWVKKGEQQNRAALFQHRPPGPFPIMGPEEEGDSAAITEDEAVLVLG

SRC = SRC (Homo sapiens, UniProt P12931)
WNK1 = WNK1 (Homo sapiens, UniProt Q9H4A3)
Sequence of WNK1 (Q9H4A3 whole entry): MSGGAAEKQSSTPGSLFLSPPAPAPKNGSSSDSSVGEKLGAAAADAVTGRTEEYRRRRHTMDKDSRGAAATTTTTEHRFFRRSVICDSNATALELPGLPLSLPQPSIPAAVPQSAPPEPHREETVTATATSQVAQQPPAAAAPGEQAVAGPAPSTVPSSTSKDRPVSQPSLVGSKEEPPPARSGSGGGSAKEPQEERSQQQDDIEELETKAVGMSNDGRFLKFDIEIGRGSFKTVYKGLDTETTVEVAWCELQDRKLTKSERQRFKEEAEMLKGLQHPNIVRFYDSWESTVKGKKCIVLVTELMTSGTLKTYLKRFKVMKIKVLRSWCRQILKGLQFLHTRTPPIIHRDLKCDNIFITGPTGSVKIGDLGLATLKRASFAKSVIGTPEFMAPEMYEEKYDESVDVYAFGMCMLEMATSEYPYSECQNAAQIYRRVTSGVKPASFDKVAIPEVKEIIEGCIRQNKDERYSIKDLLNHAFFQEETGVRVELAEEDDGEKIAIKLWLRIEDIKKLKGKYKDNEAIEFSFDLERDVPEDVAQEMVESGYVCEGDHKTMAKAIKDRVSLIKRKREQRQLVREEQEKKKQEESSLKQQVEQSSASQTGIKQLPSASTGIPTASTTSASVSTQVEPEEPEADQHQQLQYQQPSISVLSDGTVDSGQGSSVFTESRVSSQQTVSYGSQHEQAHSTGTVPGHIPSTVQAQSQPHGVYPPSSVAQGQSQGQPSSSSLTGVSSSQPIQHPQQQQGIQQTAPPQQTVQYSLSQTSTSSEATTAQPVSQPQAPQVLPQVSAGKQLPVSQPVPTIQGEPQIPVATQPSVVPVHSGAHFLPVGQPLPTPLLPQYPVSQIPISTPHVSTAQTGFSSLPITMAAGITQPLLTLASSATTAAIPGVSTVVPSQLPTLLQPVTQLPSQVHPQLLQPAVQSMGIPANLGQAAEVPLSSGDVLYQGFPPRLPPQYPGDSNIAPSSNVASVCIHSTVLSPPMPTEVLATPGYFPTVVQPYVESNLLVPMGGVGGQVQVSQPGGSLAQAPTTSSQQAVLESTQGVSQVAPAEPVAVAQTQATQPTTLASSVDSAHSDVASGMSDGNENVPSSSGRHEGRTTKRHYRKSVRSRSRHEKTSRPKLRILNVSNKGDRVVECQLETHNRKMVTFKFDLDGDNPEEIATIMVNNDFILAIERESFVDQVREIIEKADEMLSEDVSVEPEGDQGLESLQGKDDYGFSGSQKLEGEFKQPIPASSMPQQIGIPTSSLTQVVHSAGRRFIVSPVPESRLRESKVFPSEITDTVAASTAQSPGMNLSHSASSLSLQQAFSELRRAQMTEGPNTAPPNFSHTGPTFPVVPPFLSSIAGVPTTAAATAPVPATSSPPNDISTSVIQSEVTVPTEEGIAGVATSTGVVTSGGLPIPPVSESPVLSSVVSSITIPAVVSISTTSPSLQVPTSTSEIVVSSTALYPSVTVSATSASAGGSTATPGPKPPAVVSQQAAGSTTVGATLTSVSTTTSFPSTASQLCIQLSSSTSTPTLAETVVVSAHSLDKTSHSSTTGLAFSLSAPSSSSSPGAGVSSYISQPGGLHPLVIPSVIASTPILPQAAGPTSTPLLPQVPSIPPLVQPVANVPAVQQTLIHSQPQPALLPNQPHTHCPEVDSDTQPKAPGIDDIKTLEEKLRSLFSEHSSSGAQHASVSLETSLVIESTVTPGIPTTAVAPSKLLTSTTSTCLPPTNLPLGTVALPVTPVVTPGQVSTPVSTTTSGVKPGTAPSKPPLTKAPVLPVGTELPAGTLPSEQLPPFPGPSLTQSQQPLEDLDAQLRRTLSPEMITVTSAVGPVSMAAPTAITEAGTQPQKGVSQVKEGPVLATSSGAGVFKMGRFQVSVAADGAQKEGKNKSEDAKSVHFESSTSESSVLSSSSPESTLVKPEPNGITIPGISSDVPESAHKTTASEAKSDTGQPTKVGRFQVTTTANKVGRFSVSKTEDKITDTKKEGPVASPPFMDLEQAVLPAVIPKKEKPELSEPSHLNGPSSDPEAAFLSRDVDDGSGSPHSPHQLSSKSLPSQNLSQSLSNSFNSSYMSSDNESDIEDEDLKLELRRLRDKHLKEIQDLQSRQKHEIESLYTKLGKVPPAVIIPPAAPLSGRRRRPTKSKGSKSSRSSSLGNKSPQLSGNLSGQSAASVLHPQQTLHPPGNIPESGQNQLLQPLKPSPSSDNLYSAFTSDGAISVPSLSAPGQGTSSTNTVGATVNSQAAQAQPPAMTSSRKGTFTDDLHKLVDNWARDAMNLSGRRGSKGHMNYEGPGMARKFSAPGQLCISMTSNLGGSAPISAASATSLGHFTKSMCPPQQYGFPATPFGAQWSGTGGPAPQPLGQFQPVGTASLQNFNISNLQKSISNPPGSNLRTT

Sequence of CDKL1 (Q00532 whole entry): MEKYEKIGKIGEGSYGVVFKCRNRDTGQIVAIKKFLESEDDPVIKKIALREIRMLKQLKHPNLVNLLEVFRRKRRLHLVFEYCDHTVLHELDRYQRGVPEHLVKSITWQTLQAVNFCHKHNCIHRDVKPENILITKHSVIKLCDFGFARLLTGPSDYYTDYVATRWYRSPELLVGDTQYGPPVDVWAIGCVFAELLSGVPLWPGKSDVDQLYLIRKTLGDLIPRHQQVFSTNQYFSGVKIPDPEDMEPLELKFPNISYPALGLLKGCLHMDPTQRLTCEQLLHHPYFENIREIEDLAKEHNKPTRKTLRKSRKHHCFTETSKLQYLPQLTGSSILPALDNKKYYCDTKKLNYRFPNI
Sequence of DAPK3 (O43293 whole entry): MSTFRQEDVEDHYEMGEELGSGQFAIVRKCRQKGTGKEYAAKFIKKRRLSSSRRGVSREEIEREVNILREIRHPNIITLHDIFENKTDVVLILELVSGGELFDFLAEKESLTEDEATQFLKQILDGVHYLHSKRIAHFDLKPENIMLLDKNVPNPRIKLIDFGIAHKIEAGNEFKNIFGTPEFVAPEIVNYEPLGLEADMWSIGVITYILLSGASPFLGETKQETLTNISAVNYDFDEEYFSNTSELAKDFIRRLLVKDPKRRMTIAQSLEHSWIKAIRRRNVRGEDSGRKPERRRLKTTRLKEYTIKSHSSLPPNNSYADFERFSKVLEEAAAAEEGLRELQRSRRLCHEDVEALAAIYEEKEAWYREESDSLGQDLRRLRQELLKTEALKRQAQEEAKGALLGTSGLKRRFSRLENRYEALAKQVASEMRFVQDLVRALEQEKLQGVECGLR
Sequence of SRC (P12931 whole entry): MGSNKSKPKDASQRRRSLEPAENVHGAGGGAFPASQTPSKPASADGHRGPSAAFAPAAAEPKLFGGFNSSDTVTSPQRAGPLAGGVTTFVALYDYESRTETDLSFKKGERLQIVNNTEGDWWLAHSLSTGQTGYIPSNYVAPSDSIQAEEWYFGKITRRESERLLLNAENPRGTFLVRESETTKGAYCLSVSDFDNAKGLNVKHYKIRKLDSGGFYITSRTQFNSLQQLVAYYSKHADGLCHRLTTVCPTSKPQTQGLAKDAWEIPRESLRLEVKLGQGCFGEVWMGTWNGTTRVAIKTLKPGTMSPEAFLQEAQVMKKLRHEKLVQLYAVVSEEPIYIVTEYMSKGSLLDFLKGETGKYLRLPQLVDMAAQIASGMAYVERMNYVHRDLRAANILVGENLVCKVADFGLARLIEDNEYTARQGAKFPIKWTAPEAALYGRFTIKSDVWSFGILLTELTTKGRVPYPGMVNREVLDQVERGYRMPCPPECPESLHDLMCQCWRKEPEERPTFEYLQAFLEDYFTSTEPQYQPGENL
T5 sequence (Q00536 whole entry): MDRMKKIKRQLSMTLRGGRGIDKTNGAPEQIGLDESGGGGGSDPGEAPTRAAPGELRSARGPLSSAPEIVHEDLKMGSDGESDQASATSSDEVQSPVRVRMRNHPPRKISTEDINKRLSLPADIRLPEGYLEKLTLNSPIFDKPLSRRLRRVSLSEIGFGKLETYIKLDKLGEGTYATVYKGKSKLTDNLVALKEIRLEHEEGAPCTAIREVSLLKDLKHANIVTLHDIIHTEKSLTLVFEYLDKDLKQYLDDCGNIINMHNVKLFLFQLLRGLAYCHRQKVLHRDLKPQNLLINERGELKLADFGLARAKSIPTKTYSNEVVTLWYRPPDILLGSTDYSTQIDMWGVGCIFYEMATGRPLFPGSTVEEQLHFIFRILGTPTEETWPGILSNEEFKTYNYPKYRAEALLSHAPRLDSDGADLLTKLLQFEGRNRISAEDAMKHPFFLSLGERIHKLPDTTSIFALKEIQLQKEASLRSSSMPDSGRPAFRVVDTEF
T3 sequence (Q9Y2H1 whole entry): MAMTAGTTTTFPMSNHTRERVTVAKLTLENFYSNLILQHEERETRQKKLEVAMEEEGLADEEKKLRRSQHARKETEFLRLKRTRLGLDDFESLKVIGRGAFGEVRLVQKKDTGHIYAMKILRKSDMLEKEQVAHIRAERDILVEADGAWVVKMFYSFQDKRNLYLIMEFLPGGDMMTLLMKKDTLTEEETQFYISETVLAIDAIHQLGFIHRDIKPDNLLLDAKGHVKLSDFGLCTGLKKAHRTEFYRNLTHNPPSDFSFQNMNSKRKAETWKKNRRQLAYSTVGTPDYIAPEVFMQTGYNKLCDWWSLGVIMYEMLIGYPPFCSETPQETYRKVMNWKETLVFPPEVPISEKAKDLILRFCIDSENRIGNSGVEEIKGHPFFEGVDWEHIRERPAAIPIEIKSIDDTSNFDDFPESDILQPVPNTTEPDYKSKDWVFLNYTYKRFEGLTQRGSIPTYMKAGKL

ΔTm at 10 µM (CDKL1; read-out: 6c): 3 °C
ΔTm at 10 µM (DAPK3; read-out: 6c): 11 °C
ΔTm at 10 µM (DRAK1; read-out: 6c): 6 °C
ΔTm at 10 µM (DYRK1A; read-out: 6c): 6 °C
ΔTm at 10 µM (EPHA4; read-out: 6c): 2 °C
ΔTm at 10 µM (FLT1; read-out: 6c): 7 °C
ΔTm at 10 µM (MYT1; read-out: 6c): 0 °C
ΔTm at 10 µM (NDR2; read-out: 6c): -1 °C
ΔTm at 10 µM (NQO2; read-out: 6c): -1 °C
ΔTm at 10 µM (PCTAIRE1; read-out: 6c): 5 °C
ΔTm at 10 µM (PHKg2; read-out: 6c): 5 °C
ΔTm at 10 µM (SRC; read-out: 6c): 3 °C
ΔTm at 10 µM (WNK1; read-out: 6c): 2 °C
Structure (SMILES): CC(C)Oc1ccc2ccn(-c3cncc(-c4ccc(C(=O)O)cc4)n3)c2c1 [6c]

ΔTm at 10 µM (CDKL1; read-out: 7c): 1 °C
ΔTm at 10 µM (DAPK3; read-out: 7c): 14 °C
ΔTm at 10 µM (DRAK1; read-out: 7c): 4 °C
ΔTm at 10 µM (DYRK1A; read-out: 7c): 5 °C
ΔTm at 10 µM (EPHA4; read-out: 7c): 1 °C
ΔTm at 10 µM (FLT1; read-out: 7c): 5 °C
ΔTm at 10 µM (MYT1; read-out: 7c): 0 °C
ΔTm at 10 µM (NDR2; read-out: 7c): -1 °C
ΔTm at 10 µM (NQO2; read-out: 7c): -1 °C
ΔTm at 10 µM (PCTAIRE1; read-out: 7c): 2 °C
ΔTm at 10 µM (PHKg2; read-out: 7c): 3 °C
ΔTm at 10 µM (SRC; read-out: 7c): 3 °C
ΔTm at 10 µM (WNK1; read-out: 7c): 0 °C
Structure (SMILES): COc1ccc(OC(C)C)cc1Nc1cncc(-c2ccc(C(=O)O)cc2)n1 [7c]

ΔTm at 10 µM (CDKL1; read-out: 2): 2 °C
ΔTm at 10 µM (DAPK3; read-out: 2): 16 °C
ΔTm at 10 µM (DRAK1; read-out: 2): 8 °C
ΔTm at 10 µM (DYRK1A; read-out: 2): 7 °C
ΔTm at 10 µM (EPHA4; read-out: 2): 2 °C
ΔTm at 10 µM (FLT1; read-out: 2): 7 °C
ΔTm at 10 µM (MYT1; read-out: 2): 0 °C
ΔTm at 10 µM (NDR2; read-out: 2): -2 °C
ΔTm at 10 µM (NQO2; read-out: 2): -1 °C
ΔTm at 10 µM (PCTAIRE1; read-out: 2): 2 °C
ΔTm at 10 µM (PHKg2; read-out: 2): 8 °C
ΔTm at 10 µM (SRC; read-out: 2): 3 °C
ΔTm at 10 µM (WNK1; read-out: 2): 1 °C
Structure (SMILES): CC(C)Nc1ccc2cnn(-c3cncc(-c4ccc(C(=O)O)cc4)n3)c2c1 [compound 2, 2]
